Reference: publication PMC9030691, “Toxicokinetics of β-Amanitin in Mice and In Vitro Drug–Drug Interaction Potential” (Pharmaceutics, 2022)
“Also recorded” adds a separate entry of the source. Like-named read-outs stand apart in the source and are kept apart here.

Experiments:
[1] = humans, cited from earlier work; for Concentration in the kidney of amatoxin-intoxicated patients / Concentration in the liver of amatoxin-intoxicated patients: 4 cases; for Plasma concentrations in amatoxin-intoxicated patients: detected in 11 of 43 patients exposed within 36 h; for Total amount excreted in urine in amatoxin-intoxicated patients: measured in 24 patients out of 35 cases
Method: In humans, the plasma and urinary concentrations of α- and β-amanitin were detected in cases of suspected amatoxin poisoning. Among 43 amatoxin-intoxicated patients, amanitin was detected in 11 patients who were exposed to amatoxin within 36 h. The plasma concentrations were 8–190 ng/mL for α-amanitin and 15.9–162 ng/mL for β-amanitin [26]. The total amount of α- and β-amanitin excreted in urine were measured in 24 patients out of 35 cases, and a highly variable amount of α- and β-amanitin was recovered from the urine: 0.03–3.29 mg for α-amanitin and 0.05–5.21 mg for β-amani ... || The intestinal tract, liver, and kidney are vulnerable to amanitin toxicity and also express drug-metabolizing enzymes and transporters that regulate the absorption, distribution, metabolism, and excretion of endogenous substrates and xenobiotics. […] Inhibition of CYP1A2, CYP2C8, CYP2C9, CYP2C19, and CYP3A4 at 100 μM in HLMs was almos ...

humans = settings: oral administration; cited from earlier work
Method: Amanita phalloides poisoning can cause acute hepatitis, leading to the rapid development of liver insufficiency and ultimately coma and death. Nephrotoxicity is reported less frequently. Yilmaz et al. reported that an oral intake of approximately 50 g of fresh Amanita phalloides, representing a dose of 0.32 mg/kg of amatoxins, can be lethal. A few reports are available that describe the toxicokinetics of α- and β-amanitin after the oral administration of toadstool extract to beagle dogs and rats. In addition, the toxicokinetics of α-amanitin were investi ... || The Amanitaceae family is responsible for nearly 95% of all fatal mushroom poisonings, and amatoxins are the primary threats to human life. The content of amatoxins varies by Amanita species, but α- and β-amanitin are the most abundant substances. […] Among amatoxins, α-amanitin i ...

OATP1B1 = molecular target: T1, OATP1B1 (Homo sapiens, UniProt Q9Y6L6); assay: Uptake of amanitins into HEK293-OATP1B1 cells; assay type: in vitro ADME; settings: 50 μM amanitin, 5 min, 37 °C, HBSS, 20 min preincubation, with and without rifampin 100 μM, LC-HRMS, n = 3
T1 construct: expressed in transfected cells; host or cells: HEK293
Method: HEK293 cells overexpressing OCT2, MATE2-K, OAT1, OAT3, OATP1B1, and OATP1B3 transporters and HEK293-control cells were maintained in a humidified atmosphere of 5% CO2 at 37 °C in DMEM supplemented with 10% FBS and 5 mM non-essential amino acids. In the case of HEK293-OATP1B1, -OATP1B3, and MATE2-K cells, 2 mM sodium butyrate was added to the culture medium to enhance transport activity. Cells were seeded at 2 × 10^5 cells/well in poly-D-lysine-coated 24-well plates. After 24 h, the growth medium was discarded, and attached cells were washed with HBSS and preincubated for 20 min in HBSS at 37 °C. Stock solutions of α- and β-amanitin and representative inhibitors of transporters were diluted in HBSS to make the final concentration: cimetidine 1 mM (for OCT2), cimetidine 100 μM (for MATE2-K), probenecid 100 μM (for OAT1 and OAT3), and rifampin 100 μM (for OATP1B1 and OATP1B3). Uptake of 50 μM α- and β-amanitin was measured in the absence and presence of representative inhibitors for 5 min at 37 °C. Plates were placed immediately on ice, and cells were then washed twice with 1 mL of ice-cold HBSS. Residual HBSS was removed thoroughly from the plates. Subsequently, 150 μL of 80% methanol containing IS was added to each sample well, and the cell plates were shaken gently for 20 min at 4 °C. The remaining steps were the same as described for plasma sample preparation.

CYP2B6 = molecular target: T2, CYP2B6 (Homo sapiens, UniProt P20813); assay: CYP2B6 inhibition in human liver microsomes; assay type: in vitro ADME; settings: ultrapooled human liver microsomes 0.2 mg/mL, 50 μM bupropion, β-amanitin 0.1–100 μM, pH 7.4, 37 °C, 15 min, LC-MS/MS, n = 3, read-out: IC50, CYP2B6 bupropion hydroxylase
T2 construct: from tissue; host or cells: ultrapooled human liver microsomes
T2 sequence (P20813 1-491): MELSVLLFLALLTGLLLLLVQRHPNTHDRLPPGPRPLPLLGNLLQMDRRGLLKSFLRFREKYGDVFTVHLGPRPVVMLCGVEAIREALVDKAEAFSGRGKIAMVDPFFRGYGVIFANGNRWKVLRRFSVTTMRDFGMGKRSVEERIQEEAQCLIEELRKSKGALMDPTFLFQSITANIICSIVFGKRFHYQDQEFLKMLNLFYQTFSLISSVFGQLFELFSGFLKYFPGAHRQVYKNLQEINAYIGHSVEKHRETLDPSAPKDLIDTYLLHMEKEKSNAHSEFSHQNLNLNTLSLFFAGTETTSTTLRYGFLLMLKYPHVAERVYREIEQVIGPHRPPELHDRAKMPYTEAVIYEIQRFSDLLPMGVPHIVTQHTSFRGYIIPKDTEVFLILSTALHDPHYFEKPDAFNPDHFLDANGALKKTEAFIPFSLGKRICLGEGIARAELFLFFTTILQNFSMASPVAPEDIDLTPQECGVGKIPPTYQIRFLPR
Method: (§1) β-amanitin inhibition (IC50 values) of CYP1A2, CYP2A6, CYP2B6, CYP2C8, CYP2C9, CYP2C19, CYP2D6, and CYP3A4 enzyme activities in HLMs were evaluated using LC-MS/MS and CYP substrates as previously described. Each incubation mixture was made up to a volume of 100 μL including HLMs (0.2 mg/mL), 50 mM potassium phosphate buffer (pH 7.4), 1.0 mM NADPH, 10 mM magnesium chloride, various concentrations of β-amanitin (0.1–100 μM), a cocktail of seven CYP probe substrates (50 μM phenacetin for CYP1A2, 2.5 μM coumarin for CYP2A6, 2 μM amodiaquine for CYP2C8, 10 μM diclofenac for CYP2C9, 100 μM [S]-mephenytoin for CYP2C19, 5 μM bufuralol for CYP2D6, and 2.5 μM midazolam for CYP3A4 in acetonitrile), or 50 μM bupropion for CYP2B6. The reactions were initiated with NADPH followed by incubation in a shaking water bath at 37 °C for 15 min with or without 30 min preincubation with NADPH. Reactions were stopped with 50 μL of ice-cold methanol containing ^13C2, ^15N-acetaminophen and d9-1′-hydroxybufuralol (ISs). Incubation mixtures were centrifuged at 13,000× g for 8 min at 4 °C. An aliquot (5 μL) of the supernatant from the reaction mixture was analyzed by the previous LC-MS/MS method.

CYP2D6 = molecular target: T3, CYP2D6 (Homo sapiens, UniProt P10635); assay: CYP2D6 inhibition in human liver microsomes; assay type: in vitro ADME; settings: ultrapooled human liver microsomes 0.2 mg/mL, 5 μM bufuralol, β-amanitin 0.1–100 μM, pH 7.4, 37 °C, 15 min, LC-MS/MS, n = 3, read-out: IC50, CYP2D6 bufuralol 1′-hydroxylase
T3 construct: from tissue; host or cells: ultrapooled human liver microsomes
Method: as §1

[2] = with 30 min NADPH preincubation

T1 sequence (Q9Y6L6 whole entry): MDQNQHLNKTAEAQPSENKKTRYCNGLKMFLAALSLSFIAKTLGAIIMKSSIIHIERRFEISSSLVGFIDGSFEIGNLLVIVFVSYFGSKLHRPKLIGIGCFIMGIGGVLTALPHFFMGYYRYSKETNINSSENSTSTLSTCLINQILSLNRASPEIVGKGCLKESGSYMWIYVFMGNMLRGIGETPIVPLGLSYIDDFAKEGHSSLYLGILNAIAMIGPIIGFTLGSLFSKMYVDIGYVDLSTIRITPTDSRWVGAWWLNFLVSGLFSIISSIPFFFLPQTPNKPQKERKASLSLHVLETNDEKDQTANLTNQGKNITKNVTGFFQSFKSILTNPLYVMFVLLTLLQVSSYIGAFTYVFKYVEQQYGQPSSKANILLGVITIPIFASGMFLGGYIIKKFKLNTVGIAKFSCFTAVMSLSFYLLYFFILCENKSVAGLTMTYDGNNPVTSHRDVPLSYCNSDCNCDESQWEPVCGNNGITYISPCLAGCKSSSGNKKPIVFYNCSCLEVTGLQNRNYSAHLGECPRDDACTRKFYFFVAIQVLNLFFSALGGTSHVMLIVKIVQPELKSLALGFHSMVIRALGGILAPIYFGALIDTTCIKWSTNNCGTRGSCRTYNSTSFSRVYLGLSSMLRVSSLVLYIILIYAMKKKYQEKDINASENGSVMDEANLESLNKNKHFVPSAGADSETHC
T3 sequence (P10635 whole entry): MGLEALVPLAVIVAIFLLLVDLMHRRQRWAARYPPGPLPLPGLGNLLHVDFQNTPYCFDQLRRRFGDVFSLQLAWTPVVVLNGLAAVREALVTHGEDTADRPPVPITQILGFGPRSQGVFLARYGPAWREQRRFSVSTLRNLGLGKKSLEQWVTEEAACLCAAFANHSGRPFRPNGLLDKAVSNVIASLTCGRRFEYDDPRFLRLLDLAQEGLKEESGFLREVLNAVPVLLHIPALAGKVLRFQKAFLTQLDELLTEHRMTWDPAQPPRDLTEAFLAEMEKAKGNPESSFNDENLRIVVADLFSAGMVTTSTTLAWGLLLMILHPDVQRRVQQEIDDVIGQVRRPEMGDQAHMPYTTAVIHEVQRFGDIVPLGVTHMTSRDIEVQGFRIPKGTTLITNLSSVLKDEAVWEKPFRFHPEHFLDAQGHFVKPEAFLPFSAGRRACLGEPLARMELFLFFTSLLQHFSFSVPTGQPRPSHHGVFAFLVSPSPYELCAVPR

Row | Compound | Concentration in the kidney of amatoxin-intoxicated patients [1] | Concentration in the liver of amatoxin-intoxicated patients [1] | Plasma concentrations in amatoxin-intoxicated patients [1] [ng/mL] | Total amount excreted in urine in amatoxin-intoxicated patients [1] [mg] | Lethal dose (humans) [mg/kg] | Uptake into HEK293-OATP1B1 cells compared with HEK293 control cells (transport substrate) (OATP1B1) | IC50 (CYP2B6; [2]) [µM] | IC50 (CYP2B6; without NADPH preincubation) [µM] | IC50 (CYP2D6; [2]) [µM] | IC50 (CYP2D6; without NADPH preincubation) [µM]
1 | α-amanitin [reference compound] | 122–1719 ng/g kidney | 10–19 ng/g liver | 8 to 190 | 0.03 to 3.29 | 0.1 | significantly increased |  |  |  | 
2 | CC[C@H](C)[C@@H]1NC(=O)CNC(=O)[C@@H]2Cc3c([nH]c4cc(O)ccc34)[S@+]([O-])C[C@H](NC(=O)CNC1=O)C(=O)N[C@@H](CC(=O)O)C(=O)N1C[C@H](O)C[C@H]1C(=O)N[C@@H]([C@@H](C)[C@@H](O)CO)C(=O)N2 [β-amanitin] | 1017–1391 ng/g kidney | 170.8–3298 ng/g liver | 15.9 to 162 | 0.05 to 5.21 |  | significantly increased; also recorded: substrate | 34.8 | 38 | 71.6 | 76.2
